Laboratory results: US4473577A, “2-Thiazolamine derivatives, process for preparing same, and pharmaceutical compositions comprising same” (Mitsui Toatsu Chemicals, Incorporated, priority 1982, dated 1984)
Structures can show the parent of a compound that is named as a salt. Where two headings read alike, the source gives them in different places.

How the values were obtained:
[1] = Test for acute oral toxicity; set-up: species or system male mice of the ddY strain; conditions: mouse, in vivo, male ddY mice, 7 days observation, estimated
Method: Each of the three compounds used in Evaluation Tests 1 and 2 was dissolved or suspended in physiological saline and administered orally to a group of 5 male mice of the ddY strain. The LD50 value of the compound was estimated by observing these animals for 7 days after administration.

[2] = system: delayed hypersensitivity induced in mice by picryl chloride; experiment: Augmentation test of delayed hypersensitivity (picryl chloride, ear thickness); format: in vivo, male mice of the ICR strain; conditions: mouse ICR, 50 mg per kg orally, simultaneously with sensitization; ear thickness before and 24 hours after challenge (7 days after sensitization); average of 16 measurements; * = P<0.05 vs control
Text: L., and Ptak, W. "Contact and delayed hypersensitivity in the mouse I. Active sensitization and passive transfer," Immunology, 15, 405-416(1968)). In the following Evaluation Test 1, this experimental system was used to carry out an augmentation test of delayed hypersensitivity. Male mice of the ICR strain, weighing approximately 30 g, were used in groups of eight. These animals were sensitized by shaving the hair on the abdomen and applying thereto a 3% solution of picryl chloride in a 4:1 mixture of olive oil and acetone. Simultaneously with this sensitization, each of three compounds of the present invention was dissolved or suspended in physiological saline containing 0.2% carboxymethyl cellulose and administered orally to the animals in a dose of 50 mg per kg of body weight. A control group was treated solely with physiological saline containing 0.2% carboxymethyl cellulose. Seven days after sensitization, the animals were challenged by wrapping the tips of a forceps with pieces of felt, impregnating the felt with olive oil containing 1% picryl chloride, and pinching both ears of each animal. The thicknesses of the ears were measured before and 24 hours after the challenge, and the calculated present increase of ear thickness (the average of 16 measurements made of the ears of 8 animals) is shown in Table 1. […] The test results thus obtained were subjected to statistical analysis using the F.t test. The values marked with an asterisk (*) indicate that, when they were compared with the value of the control, the differences were significant at P<0.05.

[3] = system: adjuvant arthritis induced in rats by injection of a tubercle bacillus adjuvant; format: in vivo, male rats of the SD strain
[4] = rat SD, 5 mg per kg subcutaneously, nine times before and after adjuvant, left hind paw volume, * = P<0.05 vs control

| Structure (SMILES) | LD50 at 168 h [1] [mg/kg] | Percent increase of ear thickness [2] [%] | Percent inhibition of swelling as compared with control group (average of 16-20 days) ([3]; rat, in vivo, sc) [%] | Percent inhibition of swelling as compared with control group (average of 16-20 days) [3, 4] [%] |
| --- | --- | --- | --- | --- |
| c1ccc([C@H]2CN3CCSC3=N2)cc1 [Levamisole hydrochloride, reference compound] | 200 to 300 | 31.2 | 19.8 |  |
| CO/N=C(\C(=O)OC)c1csc(NC(=O)OCC(Cl)(Cl)Cl)n1 [drawing 8] |  | 33.4 |  |  |
| CCC(=O)Nc1nc(/C(=N/OC)C(=O)OC)cs1 [drawing 10] |  | 35.2 |  |  |
| CO/N=C(\C(=O)OC)c1csc(NC(=O)OCC(Cl)(Cl)Cl)n1 [drawing 11] |  |  |  | 39.5 |
| CCC(=O)Nc1nc(/C(=N/OC)C(=O)OC)cs1 [drawing 13] |  |  |  | 22.3 |
